Data: patent US20200276312A1, “Elimination of chronic pain by chronic activation of adenosine receptor type A1 in peripheral sensory neurons” (University of Rochester, priority 2019, published 2020)
Entries after “also recorded” stand apart in the source; their conditions may differ.

Legend:
[1] = tested on: mice with MIA-induced inflammatory chronic pain; experiment: von Frey mechanical sensitivity in MIA-induced inflammatory chronic pain; format: in vivo, mouse; details: for acupuncture-induced acute analgesia: agent applied at ST36 prior to each acupuncture; for acupuncture-induced RHyp (resolution of hypersensitivity): agent given with repetitive acupuncture (DPCPX, topical lidocaine at ST36; caffeine oral 0.1 mg/ml)
Source text: To assess if repetitive application of acupuncture produces an extension of transient analgesia or RHyp, inflammatory chronic pain was induced by administering monosodium iodoacetate (MIA) in the hind limb knee joints of mice (FIG. 1A and FIG. 5A), in which spreading of hypersensitivity (hyperalgesia and allodynia) in the limb develops in 3 weeks and never wears off thereafter (Combe et al., 2004, Neurosci Lett 370:236-240; Ogbonna et al., 2015, Age (Dordr) 37:9792; Rahman & Dickenson, 2015, Neuroscience 295:103-116). […] Manual acupuncture, given twice a week at ST36, induced acute analgesia in weeks 2 and 3 as well. […] This delayed-onset reduction of hypersensitivity was not a result of loss of the knee arthritis pathology, as indicated by the synovial membrane hypertrophy (FIG. 5B). […] In order to identify the cell type whose A1R mediates acute analgesia and RHyp, transgenic mice with conditional deletion of A1R selectively in sensory neurons were generated (Akopian et al, 1996, Nature 379:257-262; Stirling et al., 2005, Pain 113:27-36). (FIG. 5C). […] Both acute analgesia and RHyp were absent with repetitive administration of vehicle (FIG. 5D). […] Combined, chronic activation of A1R in sensory neurons resolves sensitization state, which can be induced by repetitive acupuncture.
Mechanical sensitivity was measured using a slightly modified Semmes-Weinstein von Frey Aesthesiometer touch test. Before beginning the measurement session, animals were acclimated to the acrylic chamber (IITC Life Science, Woodland Hills, Calif.) for 60 minutes per day for two days. Baseline mechanosensitivity was measured at least twice on different days to validate the stable, low mechanosensitivity in all mice prior to pain induction administered on the day of the second measurement. The average of the two measurements was recorded as the baseline sensitivity value. Pain-induced hyper-mechanosensitivity was evaluated three weeks after the intra-articular administration of monosodium iodoacetate (MIA, Sigma-Aldrich, 60 mg/ml, 5 μl) to a knee joint. Of note, most other inflammatory pain models cannot stably sustain hypersensitivity over months. The evaluation was performed by gently applying a thin filament of 0.04 g force to the hind paw of the animals, and the rapid retraction or tapping of the foot was counted as a positive response. A total of six trials were given to a paw in one measurement session with an interval of at least 5 min between each trial. Positive responses in the all trials were recorded, and the data were represented as the percent of positive responses. Percent change in mechanosensitivity by treatments was obtained by subtracting values of percent responses before acupuncture from that after acupuncture for each animal. […] All behavioral measurements were done at the same time of the day during the 12-hour light cycle.
For acupuncture treatment, animals were placed in a restrainer with the hind leg, ipsilateral to the knee inflammation, secured and loosely stretched. An acupuncture needle (0.20 mm; DBC Spring, Lhasa OMS, Weymouth, Mass.) was gently inserted to ST36 Zusanli point (3-4 mm below and 1-2 mm lateral from the midline from the knee) at a depth of 1.5 mm,^40 then slowly rotated for 1 minute every 3-4 minutes for a 20-minute session while the mice were awake. For sham treatment, the acupuncture needle was inserted in the same way, but then untouched for 20 minutes. The animals were immediately transferred back to the chamber and acclimated for at least 15 minutes before the post-treatment mechanosensitivity measurements. In selected experiments, solution of 2-Chloro-N^6-cyclopentyladenosine (CCPA, Sigma-Aldrich, 100 μM, 5 μl) was administered to ST36 at a depth of 1.5 mm instead of acupuncture needle. 8-Cyclopentyl-1,3-dipropylxanthine (DPCPX, Sigma-Aldrich, 100 µM, 5 μl) was administered to ST36 at a depth of 1.5 mm prior to acupuncture needle insertion. […]

[2] = in vitro release of CCPA from Fmoc-F5-Phe cation hydrogel (HPLC); format: physicochemical; details: 37° C.
Experimental: To determine the amount of CCPA released from a 1 mL hydrogel of the Fmoc-F^5-Phe cation (33.7 mM Fmoc-F^5-Phe cation, 114 mM NaCl, 0.5 mM CCPA) as a function of time, 1.5 mL of isotonic water (114 mM NaCl) was slowly added to the top of the gel to avoid disrupting the gel. This bilayer mixture was sealed in a screw top vial and placed in a 37° C. oven. Aliquots (80 μL) were removed 20 min, 40 min, 60 min, 2 h, 3 h, 4 h, 6 h, 30 h, 54 h, and 78 h after the salt water was initially layered over the gel. After removing each aliquot, the salt solution was immediately replaced with an equal volume of salt solution (80 μL, 114 mM NaCl). Aliquots were assessed by injection onto analytical HPLC instrument in order to determine the amount of CCPA that had been released. A Shimadzu 2010A HPLC instrument equipped with a Phenomenex Gemini 5 micron C18 column (250×4.6 mm) with a guard column was used to determine concentration of the CCPA released into the 1.5 mL salt solution by correlation of integrated peak area to a previously constructed CCPA concentration curve. This concentration was converted to mol of CCPA and the diffusion coefficient was determined using Equation 1. […]

sciatic nerve tissue = experiment: CCPA permeability into sciatic nerve in vivo; parameters: species or system mouse
Experimental: For quantification of CCPA permeability, parafilm (7×20 mm) was placed underneath of the exposed sciatic nerve which was then covered with a custom-made enclosure (6.5 mm length plastic tube, 1.5 mm inner diameter with 120° opening) to control the length of nerve exposed to the drugs. The enclosure surrounding the nerve was gently filled with 10 μl of CCPA (5 mM) alone or a mixture of CCPA and an ENT1/2 inhibitor, 6-S-[(4-Nitrophenyl)methyl]-6-thioinosine (NBMPR, Thermo Fisher, 1 mM). After 90 minutes, the nerve was washed with PBS, extracted (6 mm length), and stored at −80° C. Tissues were homogenized in methanol using FastPrep-24 5G with CoolPrep adapter (MP Biomedicals) and incubated for 12-14 hours at −20° C. After centrifuging at 12,000 g for 15 minutes, the supernatants were dried down in CentriVap concentrator and then reconstituted in 50% DMSO. In the pilot studies, it was confirmed that highest recovery rate of CCPA was obtained with homogenization in methanol, compared to that in ethanol or HEPES buffer solution followed by ultrafilteration, and recovery rate was calculated as 95.19%. The concentrations of CCPA in samples were quantified by HPLC.

[3] = tested on: mice with CFA-induced acute inflammatory pain; experiment: von Frey mechanical sensitivity in CFA-induced acute inflammatory pain; format: in vivo, mouse
[4] = tested on: mice with CFA-induced acute inflammatory pain; experiment: ankle circumference (swelling) in CFA model; format: in vivo, mouse; details: day five, compared to CFA-induced group that received F5-Phe gel

SMILES: COc1cccc(C2(O)CCCCC2CN(C)C)c1 (stereo not drawn) [tramadol]
- acute analgesia and RHyp ([1]; repetitive systemic administration): gradual loss of acute analgesia instead of RHyp

SMILES: OC[C@H]1O[C@@H](n2cnc3c(NC4CCCC4)nc(Cl)nc32)[C@H](O)[C@@H]1O [CCPA, 2-Chloro-N^6-cyclopentyladenosine]
- response of hypersensitivity (acute analgesia, RHyp) ([1]; A1R conditional knockout (A1RcKO) mice, repetitive administration): unresponsive
- re-emergence of hypersensitivity ([1]; WT animals, post-treatment observation period): never re-emerged
- RHyp ([1]; repetitive CCPA solution (100 μM, 5 μl) at ST36 instead of acupuncture): induced RHyp
- diffusion coefficient of CCPA release ([2]; 1 mL gel, 33.7 mM gelator, 500 μM CCPA, 114 mM NaCl, first 200 minutes): 3.15×10^−9 m^2 min^−1
- duration of continuous release from F5-Phe hydrogel ([2]; CCPA 500 μM): 15 days
- CCPA entry into sciatic nerve (sciatic nerve tissue; CCPA 5 mM applied outside the nerve in vivo, 90 minutes): found inside the sciatic nerve tissue

SMILES: CCCn1c(=O)c2[nH]c(C3CCCC3)nc2n(CCC)c1=O [DPCPX, 8-Cyclopentyl-1,3-dipropylxanthine]
- acupuncture-induced acute analgesia [1]: inhibited the manifestation
- acupuncture-induced RHyp (resolution of hypersensitivity) [1]: inhibited the manifestation

SMILES: O=[N+]([O-])c1ccc(CSc2ncnc3c2ncn3[C@@H]2O[C@H](CO)[C@@H](O)[C@H]2O)cc1 [NBMPR, 6-S-[(4-Nitrophenyl)methyl]-6-thioinosine]
- effect on CCPA entry into sciatic nerve (sciatic nerve tissue; NBMPR 1 mM mixed with CCPA 5 mM): reduced the CCPA entry

SMILES: Cn1c(=O)c2c(ncn2C)n(C)c1=O [caffeine]
- acupuncture-induced RHyp (resolution of hypersensitivity) [1]: abolished

SMILES: CCCC(=O)Nc1ncnc2c1ncn2[C@@H]1O[C@@H]2COP(=O)(O)O[C@H]2[C@H]1OC(=O)CCC [dbcAMP, N^6,O^2-dibutyryladenosine 3,5-cyclic monophosphate]
- delay of onset of RHyp ([1]; co-delivered with CCPA by F5-Phe, submuscular at ST36): 3 weeks

SMILES: CCN(CC)CC(=O)Nc1c(C)cccc1C [lidocaine]
- acupuncture-induced acute analgesia [1]: loss of acupuncture-induced acute analgesia
- acupuncture-induced RHyp (resolution of hypersensitivity) [1]: RHyp was induced
- hind paw sensitivity ([1]; topical 5% lidocaine at ST36 without acupuncture): no changes in hind paw hypersensitivity; also recorded: did not modulate hind paw sensitivity

SMILES: O=C(O)Cc1ccccc1Nc1c(Cl)cccc1Cl [Dcf, diclofenac]
- mechanical sensitivity ([3]; from 24 h after injection over the final 13 days, 0.1 mg/mL, 10 μL): ~80%
- relative percentage of hind paw sensitivity ([3]; within hours of injection, versus gel lacking diclofenac): decreased significantly
- ankle circumference [4]: slightly lower circumferences
